Experimental data taken from US12281149B2, “Modulators of G-protein coupled receptors” (priority 2021, dated 2025).
*1 amine or outer side, *2 acyl side, *3 side chain or, on linkers, in order; H or OH if unused. Where a SMILES comes first, the peptide text is derived from it. Side-chain parts run from the residue outwards. [ ]: non-standard residue; d: D form. The star is where a group is joined. Isobutyryl(2-(3-CN-5-F-Ph)) = CC(C)(C(=O)*)c1cc(F)cc(C#N)c1; C20 diacid = O=C(O)CCCCCCCCCCCCCCCCCCC(=O)*; γGlu = O=C(O)[C@H](CCC(=O)[*:2])N[*:1]; Dap = NC[C@H](N)C(=O)O; AEEA = NCCOCCOCC(=O)O; Aib = CC(C)(N)C(=O)O; βAla = NCCC(=O)O

What was measured:
Type in all cases: cell-based
[1] = molecular target: T1, GLP-1 receptor (Homo sapiens, UniProt P43220); assay: HitHunter cAMP assay, GLP-1 receptor; conditions: for EC50: CHO cells stably expressing human GLP-1 receptor, cAMP accumulation, 30 min, read-out: EC50 GLP-1R; for Emax: CHO cells, cAMP, normalized to maximum signal from GLP-1 (high) and DMSO (low), read-out: Emax GLP-1R
[2] = molecular target: T2, GIP receptor (Homo sapiens, UniProt P48546); assay: HitHunter cAMP assay, GIP receptor; conditions: for EC50: CHO cells stably expressing GIP receptor, cAMP accumulation, 30 min, read-out: EC50 GIP-1R; for Emax: CHO cells, cAMP, normalized to maximum signal from GIP (high) and DMSO (low), read-out: Emax GIP-1R
T2 sequence (P48546 22-466): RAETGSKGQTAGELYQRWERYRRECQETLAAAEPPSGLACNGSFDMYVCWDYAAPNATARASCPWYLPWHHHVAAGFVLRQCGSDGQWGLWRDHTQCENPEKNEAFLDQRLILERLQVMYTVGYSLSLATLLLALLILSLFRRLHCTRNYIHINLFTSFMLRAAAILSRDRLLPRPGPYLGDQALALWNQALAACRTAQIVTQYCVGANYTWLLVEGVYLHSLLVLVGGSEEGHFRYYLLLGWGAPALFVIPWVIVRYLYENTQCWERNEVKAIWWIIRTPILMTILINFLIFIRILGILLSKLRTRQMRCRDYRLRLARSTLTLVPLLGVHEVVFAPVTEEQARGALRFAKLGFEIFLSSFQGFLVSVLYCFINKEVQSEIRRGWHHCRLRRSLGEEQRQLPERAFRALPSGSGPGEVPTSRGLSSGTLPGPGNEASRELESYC

[3] = molecular target: T2, GIP receptor; assay: PathHunter β-arrestin assay, GIP receptor; set-up: host or cells: PathHunter CHO-K1 GIPR β-Arrestin Cell Line; conditions: β-arrestin-2 recruitment, PathHunter CHO-K1 GIPR β-Arrestin Cell Line, 90 min at 37° C.; normalized to GIP; read-out: GIPR β Arrestin EC50
Method: β-arrestin-2 recruitment for GLP-1 receptor or GIP receptor was measured using the DiscoverX PathHunter Detection Kit and PathHunter® CHO-K1 GLPIR β-Arrestin Cell Line or PathHunter® CHO-K1 GIPR β-Arrestin Cell Line, respectively). Briefly, cells were grown in Ham's F12 Nutrient Mix with 10% FBS and lifted with Cell dissociation buffer, Enzyme free, PBS based (ThermoFisher). Harvested cells were pelleted and resuspended in Assay Complete Cell Plating Reagent 2 and 5000 cells per well were plated in tissue culture treated 384-well small volume white assay plates. Plates were then incubated at 37° C. and 5% CO2 overnight. The media was then replaced with fresh Assay Complete Cell Plating Reagent 2. Cells were then treated with 10 nl compound in DMSO using an ECHO 550 acoustic dispenser (Labcyte) in a 20-point dose response format in duplicate for 90 min at 37° C. The assay was then completed according to the manufacturer's instructions. Luminescence was measured using a Perkin Elmer Envision plate reader. Raw data was normalized to the maximum signal from GLP-1 or GIP (high) and DMSO (low). Dose response curves were analyzed using GraphPad Prism 9.0.

[4] = molecular target: T1, GLP-1 receptor; assay: PathHunter β-arrestin assay, GLP-1 receptor; set-up: host or cells: PathHunter CHO-K1 GLP1R β-Arrestin Cell Line; conditions: β-arrestin-2 recruitment, PathHunter CHO-K1 GLP1R β-Arrestin Cell Line, 90 min at 37° C.; normalized to GLP-1; read-out: GLP-1R β Arrestin EC50

T1 sequence (P43220 24-463): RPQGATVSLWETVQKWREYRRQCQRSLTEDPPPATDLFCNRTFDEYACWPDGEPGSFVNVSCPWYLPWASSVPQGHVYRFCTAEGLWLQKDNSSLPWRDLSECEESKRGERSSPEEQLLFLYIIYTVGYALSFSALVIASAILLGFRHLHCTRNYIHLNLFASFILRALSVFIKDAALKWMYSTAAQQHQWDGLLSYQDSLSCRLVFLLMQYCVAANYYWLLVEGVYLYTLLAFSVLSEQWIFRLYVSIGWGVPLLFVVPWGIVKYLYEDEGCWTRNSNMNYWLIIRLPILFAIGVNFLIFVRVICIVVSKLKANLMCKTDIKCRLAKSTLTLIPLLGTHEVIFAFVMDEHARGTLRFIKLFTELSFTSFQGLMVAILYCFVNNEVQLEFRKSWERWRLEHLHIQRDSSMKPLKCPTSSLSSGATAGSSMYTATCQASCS

Structure (SMILES) | EC50 [1] [nM] | Emax [1] [%] | EC50 [2] [nM] | Emax [2] [%] | EC50 [3] [nM] | EC50 [4] [nM]
CC[C@H](C)[C@H](NC(=O)[C@H](CCCCN)NC(=O)[C@H](CC(=O)O)NC(=O)[C@H](CC(C)C)NC(=O)C(C)(C)NC(=O)[C@@H](NC(=O)[C@H](CO)NC(=O)[C@H](Cc1ccc(O)cc1)NC(=O)[C@H](CC(=O)O)NC(=O)[C@H](CO)NC(=O)[C@@H](NC(=O)[C@H](Cc1ccccc1)NC(=O)[C@@H](NC(=O)CNC(=O)[C@H](CCC(=O)O)NC(=O)CCNC(=O)C(C)(C)c1cc(F)cc(C#N)c1)[C@@H](C)O)[C@@H](C)O)[C@@H](C)CC)C(=O)N[C@@H](C)C(=O)N[C@@H](CCC(N)=O)C(=O)N[C@@H](CCCCNC(=O)COCCOCCNC(=O)COCCOCCNC(=O)CC[C@H](NC(=O)CCCCCCCCCCCCCCCCCCC(=O)O)C(=O)O)C(=O)N[C@@H](C)C(=O)N[C@@H](Cc1ccccc1)C(=O)N[C@H](C(=O)N[C@@H](CCC(N)=O)C(=O)N[C@@H](Cc1c[nH]c2ccccc12)C(=O)N[C@@H](CC(C)C)C(=O)N[C@@H](CC(C)C)C(=O)N[C@@H](C)C(=O)NCC(=O)NCC(=O)N1CCC[C@H]1C(=O)N[C@@H](CO)C(=O)N[C@@H](CO)C(=O)NCC(=O)N[C@@H](C)C(=O)N1CCC[C@H]1C(=O)N1CCC[C@H]1C(=O)N1CCC[C@H]1C(=O)N[C@@H](CO)C(N)=O)C(C)C [Compound 190] ({Isobutyryl(2-(3-CN-5-F-Ph))-βAla}-EGTFTSDYSI[Aib]LDKIAQK([AEEA-AEEA-γGlu-C20 diacid])AFVQWLLAGGPSSGAPPPS-NH2) | 1 to 10 | 98 | 1 to 10 | 100 | > 1000 | > 1000
CC[C@H](C)[C@H](NC(=O)[C@H](CC(C)C)NC(=O)[C@H](Cc1c[nH]c2ccccc12)NC(=O)[C@H](CCC(N)=O)NC(=O)[C@@H](NC(=O)[C@H](Cc1ccccc1)NC(=O)[C@H](C)NC(=O)[C@H](CCCCNC(=O)COCCOCCNC(=O)COCCOCCNC(=O)CC[C@H](NC(=O)CCCCCCCCCCCCCCCCCCC(=O)O)C(=O)O)NC(=O)[C@H](CCC(N)=O)NC(=O)[C@H](C)NC(=O)[C@@H](NC(=O)[C@H](CCCCN)NC(=O)[C@H](CC(=O)O)NC(=O)[C@H](CC(C)C)NC(=O)C(C)(C)NC(=O)[C@@H](NC(=O)[C@H](CO)NC(=O)[C@H](Cc1ccc(O)cc1)NC(=O)[C@H](CC(=O)O)NC(=O)[C@H](CO)NC(=O)[C@@H](NC(=O)[C@H](Cc1ccccc1)NC(=O)[C@@H](NC(=O)CNC(=O)[C@H](CCC(=O)O)NC(=O)[C@@H](N)CNC(=O)C(C)(C)c1cc(F)cc(C#N)c1)[C@@H](C)O)[C@@H](C)O)[C@@H](C)CC)[C@@H](C)CC)C(C)C)C(=O)N[C@@H](C)C(=O)NCC(=O)NCC(=O)N1CCC[C@H]1C(=O)N[C@@H](CO)C(=O)N[C@@H](CO)C(=O)NCC(=O)N[C@@H](C)C(=O)N1CCC[C@H]1C(=O)N1CCC[C@H]1C(=O)N1CCC[C@H]1C(=O)N[C@@H](CO)C(N)=O [Compound 191] (H-[Dap](Isobutyryl(2-(3-CN-5-F-Ph)))EGTFTSDYSI[Aib]LDKIAQK([AEEA-AEEA-γGlu-C20 diacid])AFVQWLIAGGPSSGAPPPS-NH2) | 1 to 10 | 92 | 10 to 100 | 98 | > 1000 | > 1000
